Residue numbers refer to the chain shown, from its start.
What was measured:
Type in all cases: biochemical
[1] = target: T1, drSLC38A9 (drSLC38A9^71-549) (Danio rerio, UniProt Q08BA4, N227Q/N235Q/N252Q/N263Q); experiment: [3H]arginine uptake in proteoliposomes, filtration, […] min; conditions: outside pH 7.4, inside pH 5.0, room temperature; 0.5 uM labelled compound
T1 construct: gene slc38a9; residues 71-549 (N-plug kept); N-terminal His8-thrombin tag removed; Sf-9; liposomes; the printed 5A DNA also starts at residue 71
T1 sequence (Q08BA4 71-549 N227Q/N235Q/N252Q/N263Q): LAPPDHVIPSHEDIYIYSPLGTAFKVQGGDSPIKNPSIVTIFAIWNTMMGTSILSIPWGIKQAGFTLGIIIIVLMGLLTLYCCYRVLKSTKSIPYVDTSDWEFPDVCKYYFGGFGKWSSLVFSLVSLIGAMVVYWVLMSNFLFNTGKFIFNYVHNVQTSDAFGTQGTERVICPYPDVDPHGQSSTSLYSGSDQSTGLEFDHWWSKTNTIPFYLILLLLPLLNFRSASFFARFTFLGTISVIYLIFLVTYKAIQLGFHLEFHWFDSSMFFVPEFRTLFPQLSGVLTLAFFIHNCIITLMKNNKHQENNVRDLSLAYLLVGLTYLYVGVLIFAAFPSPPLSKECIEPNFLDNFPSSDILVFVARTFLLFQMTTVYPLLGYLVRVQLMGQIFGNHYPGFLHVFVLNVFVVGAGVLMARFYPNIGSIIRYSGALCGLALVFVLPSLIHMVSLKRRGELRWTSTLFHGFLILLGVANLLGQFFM

[2] = target: T2, drSLC38A9 (drSLC38A9^71-549) (Danio rerio, UniProt Q08BA4, P79A/S80A/H81A/E82A/Y85A/N227Q/N235Q/N252Q/N263Q); experiment: [3H]leucine uptake in proteoliposomes, filtration; conditions: 0.5 uM labelled compound, pH 5.0 assay buffer, room temperature; with or without 200 uM arginine
T2 construct: gene slc38a9; residues 71-549 (N-plug kept); N-terminal His8-thrombin tag removed; Sf-9; liposomes; the printed 5A DNA also starts at residue 71
T2 sequence (Q08BA4 71-549 P79A/S80A/H81A/E82A/Y85A/N227Q/N235Q/N252Q/N263Q): T1 sequence (Q08BA4 71-549 N227Q/N235Q/N252Q/N263Q) with P9A, S10A, H11A, E12A, Y15A

[3] = target: T3, drSLC38A9^97-549 (N-terminal deletion, without N-plug) (Danio rerio, UniProt Q08BA4, N227Q/N235Q/N252Q/N263Q); experiment: [3H]leucine uptake in proteoliposomes, filtration; conditions: 0.5 uM labelled compound, pH 5.0 assay buffer, room temperature; with or without 200 uM arginine
T3 construct: gene slc38a9; residues 97-549 (N-plug deleted); N-terminal His8-thrombin tag removed; Sf-9; liposomes
T3 sequence (Q08BA4 97-549 N227Q/N235Q/N252Q/N263Q): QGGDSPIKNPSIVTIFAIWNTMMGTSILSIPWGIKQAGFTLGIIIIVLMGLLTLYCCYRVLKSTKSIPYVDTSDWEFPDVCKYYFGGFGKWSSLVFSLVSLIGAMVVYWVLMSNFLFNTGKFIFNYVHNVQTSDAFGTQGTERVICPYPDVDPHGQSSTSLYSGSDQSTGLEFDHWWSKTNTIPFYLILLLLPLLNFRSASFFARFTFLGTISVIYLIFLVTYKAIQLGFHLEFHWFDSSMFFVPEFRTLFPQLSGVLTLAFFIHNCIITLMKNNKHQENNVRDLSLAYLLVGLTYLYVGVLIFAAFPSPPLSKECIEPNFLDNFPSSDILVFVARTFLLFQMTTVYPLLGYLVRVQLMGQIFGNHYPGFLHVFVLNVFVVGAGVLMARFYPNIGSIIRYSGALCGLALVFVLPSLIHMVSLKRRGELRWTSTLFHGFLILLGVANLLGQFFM

Structure (SMILES)	[3H]arginine uptake in proteoliposomes, filtration, 5 min [1]	[3H]leucine uptake in proteoliposomes, filtration [2]	[3H]leucine uptake in proteoliposomes, filtration [3]
N=C(N)NCCC[C@H](N)C(=O)O [arginine]	the construct studied structurally here and the wild-type drSLC38A9 transport arginine with similar rates		
CC(C)C[C@H](N)C(=O)O [leucine]		The mutant proteins show similar transport capacity for leucine regardless of whether arginine was added	The mutant proteins show similar transport capacity for leucine regardless of whether arginine was added
